SMILES strings stand for the structures.

The data set in a line: Half life measured in vitro for its stability in human blood. Format: ADME, tissue-based.
Compound `CCOc1cc(OCC)c2c(c1)S(=O)(=O)N(COC(=O)c1c(Cl)cccc1Cl)C2=O` registered a half-life of 98 min.

`COc1ccc2c(c1)S(=O)(=O)N(COC(=O)c1c(Cl)cccc1Cl)C2=O` returned a half-life of 5 min. For `COc1cc(OC)c2c(c1)S(=O)(=O)N(COC(=O)c1c(Cl)cccc1Cl)C2=O` the value was 30 min; for `CCOc1cccc2c1C(=O)N(COC(=O)c1c(Cl)cccc1Cl)S2(=O)=O`, 10 min.

The values above are taken from ChEMBL document CHEMBL1128630, “Alkoxy substituted benzisothiazolone (BIT) derivatives: potent inhibitors of human leukocyte elastase” (Bioorg Med Chem Lett, 1995).
